Results published in ChEMBL document CHEMBL3639235, “Depsipeptides and their therapeutic use” (2014).
pIC50: −log10 of the molar value.

Molecular target: Histone deacetylase 1 (Homo sapiens, UniProt Q13547)
Assay: Fluorescent Activity Assay: In vitro HDAC assays were performed using a HDAC fluorescent activity assay kit (Biomol, UK) according to the manufacturer's instructions. Compounds were reduced prior to analysis; 1 mM compound was reduced with 30 mM DTT in DMSO overnight at room temperature, protected from light. Reactions were then set up in a 96-well plate. For each reaction 10 ul compound (5x required concentration in assay buffer) was mixed with […] diluted HeIa Nuclear Extract (30-fold in assay buffer). Serial dilutions were set up for each compound. Reactions containing HeIa extract only and assay buffer only were also set up. 25 ul diluted Fluor de Lys substrate (100-fold in assay buffer) was added to each reaction, which were then incubated at 37C for 1 hour. The reaction was stopped by addition of 50 ul Fluor de Lys Developer (20-fold dilution in assay buffer, plus TSA diluted 100-fold). The reactions were then incubated at room temperature for 10 minutes before fluorescence was measured.

Chain of Histone deacetylase 1 (Q13547 whole entry): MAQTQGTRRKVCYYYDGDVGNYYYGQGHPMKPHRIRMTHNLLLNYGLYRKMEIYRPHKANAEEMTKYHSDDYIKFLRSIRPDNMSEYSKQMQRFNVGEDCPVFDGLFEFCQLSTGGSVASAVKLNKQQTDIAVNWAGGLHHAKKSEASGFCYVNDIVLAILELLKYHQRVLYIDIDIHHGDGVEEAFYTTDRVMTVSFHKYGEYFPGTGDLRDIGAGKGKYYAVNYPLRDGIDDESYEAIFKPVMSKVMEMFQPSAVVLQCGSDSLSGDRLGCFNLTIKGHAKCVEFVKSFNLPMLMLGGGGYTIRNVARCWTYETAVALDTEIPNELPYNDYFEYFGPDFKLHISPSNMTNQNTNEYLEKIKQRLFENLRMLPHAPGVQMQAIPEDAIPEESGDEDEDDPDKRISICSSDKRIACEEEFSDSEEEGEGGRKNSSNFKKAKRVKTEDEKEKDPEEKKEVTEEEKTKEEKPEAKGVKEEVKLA

**Q.** With `CC(=O)SCC/C=C/[C@@H]1CC(=O)N[C@H](C(C)C)C(=O)N[C@H](C)C(=O)N[C@H](C(C)C)[C@@H](O)CC(=O)O1` as the molecule, how does the pIC50 read?
**A.** 7.66
